Each structure is given as a SMILES string.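 Following 48 hours of exposure in 96-well plates, responses at five concentrations were used to interpolate endpoints linearly. GI50 is the concentration that inhibits growth by half.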 Active and inactive are the calls of the source. Rule as the data show it: active = GI50 up to about 1.1 µM and inactive = higher.

Test systems include DLD-1; DMS-273; HOP-18; KM-20L2; M19-MEL; SNB-78; DMS-114; XF498; RXF 631.
Holding throughout (experiment): NCI-60 cell line screen, 48 h

`O=C(O)c1cc2c3ccccc3nc-2c[nH]1`: the GI50 with DLD-1, in the assay with DMS-273, with HOP-18, in the assay on KM-20L2, with M19-MEL and with SNB-78 was > 100 µM (inactive) in each case. Further, the GI50 with DMS-114 is > 100 µM (inactive).

On to `N#Cc1c(-c2ccc(Cl)cc2)c(-c2ccc(Cl)cc2)nn(CCOC(=O)CCC(=O)O)c1=O`, for which the GI50 in the assay with DLD-1 was 4.13 µM (inactive); in the assay on DMS-273, 2.08 µM (inactive); in the assay on HOP-18, 29.2 µM (inactive); with KM-20L2, 2.28 µM (inactive); in the assay with M19-MEL, 1.8 µM (inactive); in the assay on DMS-114 it was 0.931 µM (active).

For the molecule `O=C1OC(=O)C2C1C1C(c3ccccc3)=C(c3ccccc3)C2(O)C2C(=O)OC(=O)C12` (stereo not drawn), the GI50 with DLD-1 was 91 µM (inactive); in the assay on KM-20L2, 91 µM (inactive); with M19-MEL, > 100 µM (inactive); in the assay with SNB-78, 97.7 µM (inactive); with DMS-114 it was 28.6 µM (inactive).

Take `CCOC(=O)/C(C(=O)c1ccccc1)=C1/NCCN1C`: the GI50 in the assay on DLD-1, in the assay on HOP-18, in the assay with KM-20L2, in the assay on M19-MEL, with SNB-78 and in the assay on XF498 was > 100 µM (inactive) in each case.

Consider `Cc1cc2c(cc1C)[n+]([O-])c(C(=O)CC(=O)C(=O)Nc1ccccc1C)c(C)[n+]2[O-]`, for which the GI50 was > 100 µM (inactive) in the assay with DMS-273; 30.5 µM (inactive) with HOP-18; > 100 µM (inactive) in the assay on KM-20L2; 32 µM (inactive) in the assay with RXF 631; > 100 µM (inactive) in the assay with M19-MEL; > 100 µM (inactive) in the assay with SNB-78.

For the molecule `O=C1C[C@@H]2[C@@H](CCC23CCCC3)N1`, the GI50 with DLD-1, in the assay on DMS-273, in the assay on HOP-18, with KM-20L2, in the assay with M19-MEL and with SNB-78 was > 100 µM (inactive) each time.

Turning to `CC1=C(c2ccccc2)C(c2ccccc2)=C(c2ccccc2)C2(c3ccccc3)C(=O)C(C)CN12` (stereo not drawn), the GI50 with DLD-1 was 61.8 µM (inactive); with DMS-273, 46.1 µM (inactive); in the assay on KM-20L2, 45.5 µM (inactive); with M19-MEL, 58.5 µM (inactive); in the assay on XF498, 16.9 µM (inactive).

In the case of `Cc1c(C)n(COCCO)c2ncnc(N)c12`, the GI50 in the assay with DLD-1, in the assay with DMS-273, with HOP-18, with KM-20L2, with M19-MEL and with XF498 was > 100 µM (inactive) throughout.

Turning to `O=C1C=CC(=O)c2c1ccc1c3ccccc3n(-c3ccccn3)c21`, the GI50 in the assay with DLD-1 was 16.5 µM (inactive); in the assay with DMS-273, 39.4 µM (inactive); in the assay with HOP-18 it was 14.8 µM (inactive); with M19-MEL, 21 µM (inactive); in the assay with SNB-78, > 100 µM (inactive); with XF498, 15.6 µM (inactive). Moreover, the GI50 in the assay on DMS-114 is 20.6 µM (inactive).

Turning to `CN(C)c1ccc(/C=N\N2C(=O)c3ccccc3C2=O)cc1`, the GI50 with DLD-1, in the assay with DMS-273, in the assay on HOP-18, in the assay with KM-20L2, with M19-MEL and in the assay with SNB-78 was > 100 µM (inactive) in each case. The GI50 in the assay with XF498 and with DMS-114 was > 100 µM (inactive) throughout.

On to `N#C/C(=C/c1ccsc1)C(=O)c1ccccc1`, for which the GI50 in the assay with DLD-1, in the assay with DMS-273, in the assay on HOP-18, with KM-20L2, with M19-MEL and in the assay with SNB-78 was > 100 µM (inactive) in each case. Also, the GI50 in the assay on XF498 and in the assay with DMS-114 was > 100 µM (inactive) each time.

As for `O=C(N/C(=C/c1cccc([N+](=O)[O-])c1)c1nc2cc(Cl)ccc2[nH]1)c1ccccc1`, the GI50 in the assay on HOP-18 is 30.9 µM (inactive); with KM-20L2, 10.5 µM (inactive); in the assay with RXF 631, 10.5 µM (inactive); in the assay with M19-MEL, 24 µM (inactive); in the assay on SNB-78 it was 39.9 µM (inactive); with DMS-114 it was 8.51 µM (inactive).

Take `C[C@]12Cc3conc3C(O)=C1CC[C@@H]1C2CC[C@@]2(C)C1CC[C@]2(C)O` (stereo partly drawn): the GI50 in the assay with DLD-1 was 16.5 µM (inactive); in the assay with DMS-273, 9.04 µM (inactive); in the assay on KM-20L2 it was 13.5 µM (inactive); with RXF 631 it was 21.6 µM (inactive); in the assay with M19-MEL, 15.1 µM (inactive); with SNB-78 it was 22.4 µM (inactive). Further, the GI50 is 18.2 µM (inactive) in the assay on XF498 and 16.4 µM (inactive) in the assay with DMS-114.

Consider `COC(=O)CCC(=O)CC(=O)C(=O)Nc1ccc(F)cc1`, for which the GI50 in the assay with DLD-1, with DMS-273, in the assay on HOP-18, with KM-20L2, in the assay with M19-MEL and with SNB-78 was > 100 µM (inactive) each time. In addition, the GI50 in the assay on DMS-114 was > 100 µM (inactive).

On to `COc1ccc2c(CCNC(=O)/C=C/c3ccccc3)c(C(C)=O)[nH]c2c1[N+](=O)[O-]`, for which the GI50 in the assay with DMS-273 was 5.64 µM (inactive); in the assay on KM-20L2 it was 19.1 µM (inactive); in the assay with RXF 631, 13.2 µM (inactive); in the assay on SNB-78 it was 40.2 µM (inactive); in the assay with DMS-114, 13.6 µM (inactive).

As to `COC1=C(OC)C(=O)c2cc(C)c(=O)c(C)cc2C1=O`, the GI50 is 22.3 µM (inactive) in the assay with DLD-1; 25.4 µM (inactive) in the assay with DMS-273; 16.3 µM (inactive) in the assay with HOP-18; 21.1 µM (inactive) in the assay on KM-20L2; 50.6 µM (inactive) in the assay on RXF 631; 3.37 µM (inactive) in the assay on M19-MEL. Further, the GI50 was 18.5 µM (inactive) with SNB-78 and 3.27 µM (inactive) with DMS-114.

As for `O=S1(=O)NN=C(NCc2ccc(Cl)cc2)c2ccccc21`, the GI50 was 95.1 µM (inactive) in the assay with DLD-1; > 100 µM (inactive) in the assay with DMS-273; > 100 µM (inactive) with KM-20L2; > 100 µM (inactive) in the assay with RXF 631; > 100 µM (inactive) in the assay on M19-MEL; > 100 µM (inactive) in the assay on SNB-78. The figures for the GI50 with XF498 and with DMS-114 were 90.6 µM (inactive) and > 100 µM (inactive), respectively.

As to `C=CC1=CSNN1`, the GI50 with DLD-1, with DMS-273, in the assay on HOP-18, in the assay with KM-20L2, in the assay with M19-MEL and in the assay on DMS-114 was > 100 µM (inactive) throughout.

For `COC(=O)C1=Cc2cn(S(=O)(=O)c3ccc(C)cc3)c3cccc(c23)C(C=C(C)C)N1C(C)=O` (stereo not drawn), the GI50 in the assay with DLD-1 is 14.7 µM (inactive); with DMS-273, 6.01 µM (inactive); in the assay with HOP-18, 38.5 µM (inactive); in the assay on KM-20L2, 69.3 µM (inactive); with M19-MEL, 21.4 µM (inactive); in the assay on SNB-78, 24.5 µM (inactive). In addition, the GI50 was 9.55 µM (inactive) in the assay with XF498 and 11.5 µM (inactive) in the assay on DMS-114.

Consider `Nc1ccn(CCCC(c2ccccc2)P(=O)(O)O)c(=O)n1` (stereo not drawn), for which the GI50 in the assay on DLD-1, with DMS-273, with HOP-18, with KM-20L2, with M19-MEL and with SNB-78 was > 100 µM (inactive) each time. In addition, the GI50 with DMS-114 was > 100 µM (inactive).

`CC(C)(C)OC(=O)NCCc1cccc2c1oc1c(CCC(=O)O)cccc12`: the GI50 with DLD-1, in the assay with DMS-273, in the assay on HOP-18, in the assay with KM-20L2, with M19-MEL and in the assay with SNB-78 was > 100 µM (inactive) throughout. For the same molecule, the GI50 in the assay with XF498 and in the assay on DMS-114 was > 100 µM (inactive) throughout.

`C=C1CC2CC[C@@]34C[C@@H]5O[C@@H]6C(O[C@H]7CC[C@H](CC(=O)OC8[C@@H](C)C9OC%10C[C@]%11(C[C@@H]%12O[C@@]%13(C[C@@H](C)[C@@H]%12O%11)C[C@H](C)[C@@H]%11OC%12CC(C(O)CO)OC%12C[C@@H]%11O%13)OC%10CC9O[C@H]8C[C@H]8O[C@@H](CC[C@@H]1O2)C[C@@H](C)C8=C)O[C@@H]7[C@@H]6O3)C5O4` (stereo partly drawn): the GI50 in the assay with DLD-1 was 0.00267 µM (active); with DMS-273, 0.000499 µM (active); in the assay with KM-20L2, 0.000428 µM (active); in the assay on RXF 631, 0.000603 µM (active); in the assay on SNB-78, 0.00178 µM (active); with XF498, 0.000267 µM (active).

On to `Cc1[nH]c(O)nc1C(=O)c1ccc(-n2ccnc2)cc1`, for which the GI50 with DLD-1, in the assay on DMS-273, with KM-20L2, in the assay with M19-MEL and in the assay with DMS-114 was > 100 µM (inactive) throughout.

For `CN(C)c1cccc(-c2cc(O)c3cc4c(cc3n2)OCO4)c1`, the GI50 in the assay on DLD-1 is 0.206 µM (active); with DMS-273, 0.203 µM (active); in the assay with KM-20L2 it was 0.216 µM (active); in the assay with RXF 631, 0.815 µM (active); in the assay with M19-MEL, 0.401 µM (active); with SNB-78, 62.8 µM (inactive). The GI50 is 0.144 µM (active) in the assay with XF498 and 0.236 µM (active) with DMS-114.

For `CC1OC(=O)C(C(C)C)NC(=O)C(C(C)C)OC(=O)C(C(C)C)NC(=O)C(C)OC(=O)C(C(C)C)NC(=O)C(C(C)C)OC(=O)C(C(C)C)NC(=O)C(C)OC(=O)C(C(C)C)NC(=O)C(C(C)C)OC(=O)C(C(C)C)NC1=O` (stereo not drawn), the GI50 in the assay on DLD-1 is 0.00326 µM (active); with DMS-273, 0.0025 µM (active); with HOP-18, 0.0337 µM (active); in the assay on KM-20L2 it was 0.0034 µM (active); in the assay on M19-MEL, 0.00367 µM (active); with SNB-78, 0.00391 µM (active). Also, in the assay on DMS-114, the GI50 is 0.0025 µM (active).

Take `O=C1c2ccccc2C(=O)c2c(O)c(O)cc(O)c21` [PURPURIN]: the GI50 is 31.5 µM (inactive) in the assay on DLD-1; 38.1 µM (inactive) with DMS-273; 39.4 µM (inactive) in the assay with RXF 631; 36.7 µM (inactive) in the assay on M19-MEL; 38.2 µM (inactive) in the assay on SNB-78; 22.9 µM (inactive) with XF498.

(Values after ChEMBL document CHEMBL1201862, “PubChem BioAssay data set” (2004).)
